According to patent US5605929A, “Methods and compositions for inhibiting 5α-reductase activity” (priority 1995, dated 1997):
Where two headings read alike, the source gives them in different places.

Key:
5α-reductase [1] = conditions: cited from earlier work
[2] = molecular target: T1, human 5α-reductase isozyme type 2 (Homo sapiens, UniProt P31213); assay: [3H]4-MA binding, human type 2 isozyme expressed in Rat-1A cells; conditions: read-out: % Inhibition of [^3 H]4-MA binding
T1 construct: expressed in transfected cells; host or cells: Rat-1A cells infected with pMV7 retrovirus; microsomes of these cells
T1 sequence (P31213 1-254): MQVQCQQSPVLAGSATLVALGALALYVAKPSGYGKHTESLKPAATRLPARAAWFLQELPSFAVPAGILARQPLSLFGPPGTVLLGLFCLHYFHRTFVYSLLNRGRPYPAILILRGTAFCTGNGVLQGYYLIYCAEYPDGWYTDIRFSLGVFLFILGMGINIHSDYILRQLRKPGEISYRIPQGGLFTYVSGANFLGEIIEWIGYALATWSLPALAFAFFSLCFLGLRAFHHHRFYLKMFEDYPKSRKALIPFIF
Excerpt: (§1) The cDNAs for the human type 1 and 2 5α-reductases were isolated from human prostate λZAP II™ cDNA libraries using the published sequence of the 5α-reductases, PCR™ and standard library screening techniques (Sambrook et al., 1989). The type 1 and 2 cDNAs correspond to nucleotides 31-870 and 28-829, respectively, of the published sequences for these 5α-reductases (Anderson and Russell, 1990; Anderson et al., 1991). The type 1 and 2 cDNAs were subcloned into the retroviral expression vector pMV7 (Kirschmeier et al., 1988) and high titer stocks of virus containing the type 1 and 2 cDNAs were generated using the packaging cells BOSC 23 293 (Kirschmeier et al., 1988). Rat.-1A cells (Pear et al., 1993) were infected with virus (Topp, 1981) and cells containing integrated retrovirus were selected for G418-SO4 resistance, (Brown and Scott, 1987).
(§2) Microsomes were prepared as described previously (Liang and Liao, 1992) from the liver of adult Sprague-Dawley female rats or Rat-1A cells expressing a specific type of human 5α-reductase. […] The data presented was based on the rate of reaction.
(§3) [^3 H]4-MA binding assay were described in detail previously (Liang and Liao, 1992; Liang et al., 1983). […] The reaction was started by the addition of 25 μl of microsomes (25 μg protein). After 30-60 min incubation at 0° C., the [^3 H]4-MA bound to microsomes was collected on a Whatman GF/F glass fiber, washed and radioactivity determined (Liang and Liao, 1992).

5α-reductase [3] = assay: Catechin gallates in rat liver microsomes or cells expressing type 1 or type 2 5α-reductase; format: biochemical; conditions: 40 μM
[4] = molecular target: T2, human 5α-reductase isozyme type 1 (Homo sapiens, UniProt P18405); assay: [3H]4-MA binding, human type 1 isozyme expressed in Rat-1A cells; conditions: read-out: % Inhibition of [^3 H]4-MA binding
T2 construct: expressed in transfected cells; host or cells: Rat-1A cells infected with pMV7 retrovirus; microsomes of these cells
T2 sequence (P18405 1-259): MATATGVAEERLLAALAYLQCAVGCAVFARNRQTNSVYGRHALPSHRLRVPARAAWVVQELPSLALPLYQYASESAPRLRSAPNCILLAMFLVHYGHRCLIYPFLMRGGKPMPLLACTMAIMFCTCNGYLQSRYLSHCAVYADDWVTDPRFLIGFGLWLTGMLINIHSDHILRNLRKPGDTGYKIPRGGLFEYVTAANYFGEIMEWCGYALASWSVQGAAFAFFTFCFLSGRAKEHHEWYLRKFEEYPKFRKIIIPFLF
Excerpt: as §1, §2, §3

[5] = molecular target: T2, human 5α-reductase isozyme type 1; assay: 4-[14C]testosterone reduction, human type 1 isozyme; format: biochemical; conditions: for inhibition at 1 µM / inhibition at 3 µM / inhibition at 10 µM / inhibition at 30 µM: read-out: % Inhibition of 5α-reduction; for activity on type 1 isozyme: enzymatic assay
Excerpt: as §1, §2
(§4) The reaction was started by the addition of 25 μl of microsomes (25 μg protein). The mixture was incubated at 37° for 30-60 min and stopped by addition of 0.5 ml of ethyl acetate and mixing for 1 min. The organic solvent extract was removed under vacuum.

[6] = molecular target: T3, 5α-Reductase of Rat Liver Microsomes (Rattus norvegicus, UniProt P24008); assay: [3H]4-MA binding assay, rat liver microsomes (tea catechins); conditions: read-out: % Inhibition of [^3 H]4-MA binding
T3 sequence (P24008 1-259): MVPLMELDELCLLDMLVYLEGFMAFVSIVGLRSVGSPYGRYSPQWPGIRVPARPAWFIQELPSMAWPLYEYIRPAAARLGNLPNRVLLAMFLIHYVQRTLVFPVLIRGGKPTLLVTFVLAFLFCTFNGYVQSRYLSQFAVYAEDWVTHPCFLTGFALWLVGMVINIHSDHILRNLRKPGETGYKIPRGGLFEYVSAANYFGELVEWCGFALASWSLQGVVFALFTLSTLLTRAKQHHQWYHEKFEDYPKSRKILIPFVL
Description: Microsomes were prepared as described previously (Liang and Liao, 1992) from the liver of adult Sprague-Dawley female rats or Rat-1A cells expressing a specific type of human 5α-reductase. Each study was carried out in duplicate or triplicate which were usually within 10% of each other. Several studies were preformed to assure that the results shown are representative. The data presented was based on the rate of reaction.
as §3

[7] = test system: ventral prostate and preputial organ; conditions: 5 mg ip daily, 14 days
Excerpt: Male Sprague-Dawley rats, 60±5 g body weight, were used. Each group had 6 rats, and all were castrated.

[8] = test system: forehead sebum production; assay: Forehead sebum production (L/R ratio), human male; format: in vivo
Description: A volunteer was used to test and analyze sebum production from the forehead region. The forehead was washed thoroughly by soap twice and cleaned by 70% isopropyl alcohol twice. Sebum production was measured 30 to 60 minutes later by a sebum meter (Courage/Khazaka Electronic GmbH, Germany). The sebum meter tape probe (7 mm×8 mm) covered 56 mm^2 area in each measurement. Ten measurements were made within the 4 cm square area (16 cm^2) located at the middle of the left or right side forehead between the eyebrow and the hair line.
The sebum meter detected the difference in the transparency of the tape before and after the tape was placed on the forehead for 30 seconds and expressed the difference in an arbitrary number (S-value) between 0 to 300 (or higher). S-values of sebum accumulated on the foreheads of men are usually 200 to 300.

[9] = molecular target: T1, human 5α-reductase isozyme type 2; assay: 4-[14C]testosterone reduction, human type 2 isozyme; format: biochemical; conditions: for inhibition at 1 µM / inhibition at 3 µM / inhibition at 10 µM / inhibition at 30 µM / inhibition at 100 µM: read-out: % Inhibition of 5α-reduction; for activity on type 2 isozyme: enzymatic assay, concentrations below 30 μM for ECG/EGCG
Excerpt: as §1, §2, §4

Soybean lipoxygenase = Soybean lipoxygenase (Glycine max, UniProt P08170); conditions: cited from earlier work
[10] = test system: androgen-dependent organs; format: in vivo, rat; conditions: up to 15 mg per day
Description: The control rats were injected with 0.3 ml of 30% ethanol.

Sequence of Soybean lipoxygenase (P08170 whole entry): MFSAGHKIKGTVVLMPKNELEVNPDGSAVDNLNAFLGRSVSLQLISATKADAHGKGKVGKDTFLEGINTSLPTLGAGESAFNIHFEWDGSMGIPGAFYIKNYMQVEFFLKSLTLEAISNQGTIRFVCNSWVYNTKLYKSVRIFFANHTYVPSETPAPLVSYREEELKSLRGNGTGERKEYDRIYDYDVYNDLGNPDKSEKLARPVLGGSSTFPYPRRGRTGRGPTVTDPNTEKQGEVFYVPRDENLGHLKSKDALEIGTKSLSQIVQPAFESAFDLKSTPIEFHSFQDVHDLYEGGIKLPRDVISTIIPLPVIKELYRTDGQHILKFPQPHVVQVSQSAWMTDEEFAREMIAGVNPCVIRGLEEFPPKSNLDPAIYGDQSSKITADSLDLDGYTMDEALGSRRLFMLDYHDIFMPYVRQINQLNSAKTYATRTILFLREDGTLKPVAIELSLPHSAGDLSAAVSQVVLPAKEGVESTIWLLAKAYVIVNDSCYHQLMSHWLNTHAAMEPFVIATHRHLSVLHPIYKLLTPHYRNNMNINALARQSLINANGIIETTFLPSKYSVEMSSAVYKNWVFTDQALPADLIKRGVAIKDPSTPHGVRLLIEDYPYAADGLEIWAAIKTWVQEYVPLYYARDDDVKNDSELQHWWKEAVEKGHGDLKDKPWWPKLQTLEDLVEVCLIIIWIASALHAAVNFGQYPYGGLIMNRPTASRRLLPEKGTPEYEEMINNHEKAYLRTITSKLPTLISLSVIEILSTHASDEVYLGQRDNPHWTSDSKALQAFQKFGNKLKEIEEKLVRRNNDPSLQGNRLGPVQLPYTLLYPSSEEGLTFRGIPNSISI

C[C@]12CC[C@H]3[C@@H](CCC4=CC(=O)CC[C@@]43C)[C@@H]1CC[C@@H]2C(=O)O [4-androstane-3-one-17β-carboxylic acid]
shown to inhibit 5α-reductase: 5α-reductase inhibition (5α-reductase [1])

C[C@]12CC[C@H]3[C@@H](CCC4C(=[N+]=[N-])C(=O)CC[C@@]43C)[C@@H]1CC[C@@H]2CCCO (some centres unmarked) [4-diazo-21-hydroxymethyl-pregnane-3-one]
shown to inhibit 5α-reductase: 5α-reductase inhibition (5α-reductase [1])

Oc1cc(O)c2c(c1)O[C@H](c1ccc(O)c(O)c1)[C@H](O)C2 [EC, (-)Epicatechin]
1.21±0.01: L/R sebum ratio recovered after treatment stopped ([8]; 10 days after stop)
not active: activity on type 1 isozyme [5] | activity on type 2 isozyme [9]
13%: inhibition at 3 µM ([4]; Table 9, 3 μM) | inhibition at 3 µM ([5]; Table 10, 3 μM)
not EC: effect on ventral prostate and preputial organ weights [7]
less than 25%: inhibition (5α-reductase [3])
1.02±0.1: L/R sebum ratio at end of treatment ([8]; 20 mg twice a day, 6 days)
< 10%: inhibition at 1 µM ([2]; Table 9, 1 μM) | inhibition at 3 µM ([2]; Table 9, 3 μM) | inhibition at 10 µM ([2]; Table 9, 10 μM) | inhibition at 30 µM ([2]; Table 9, 30 μM) | inhibition at 100 µM ([2]; Table 9, 100 μM) | inhibition at 1 µM ([4]; Table 9, 1 μM) | inhibition at 10 µM ([4]; Table 9, 10 μM) | inhibition at 30 µM ([4]; Table 9, 30 μM) | inhibition at 1 µM ([5]; Table 10, 1 μM) | inhibition at 10 µM ([5]; Table 10, 10 μM) | inhibition at 30 µM ([5]; Table 10, 30 μM) | inhibition at 5 µM ([6]; Table 8, 5 μM) | inhibition at 10 µM ([6]; Table 8, 10 μM) | inhibition at 20 µM ([6]; Table 8, 20 μM) | inhibition at 40 µM ([6]; Table 8, 40 μM) | inhibition at 200 µM ([6]; Table 8, 200 μM) | inhibition at 1 µM ([9]; Table 10, 1 μM) | inhibition at 3 µM ([9]; Table 10, 3 μM) | inhibition at 10 µM ([9]; Table 10, 10 μM) | inhibition at 30 µM ([9]; Table 10, 30 μM) | inhibition at 100 µM ([9]; Table 10, 100 μM)
18%: inhibition at 100 µM ([4]; Table 9, 100 μM)
not EC or γ-LA: effect on body weight increase [7]

Oc1cc(O)c2c(c1)O[C@H](c1cc(O)c(O)c(O)c1)[C@H](O)C2 [EGC, (-)Epigallocatechin]
21 µM: IC50 (Soybean lipoxygenase)
not active: activity on type 1 isozyme [5] | activity on type 2 isozyme [9]
No significant effect: effect on the body weight [10]
13%: inhibition at 30 µM [2]
< 10%: inhibition at 1 µM [2] | inhibition at 3 µM [2] | inhibition at 10 µM [2] | inhibition at 1 µM [4] | inhibition at 3 µM [4] | inhibition at 10 µM [4] | inhibition at 30 µM [4] | inhibition at 1 µM [5] | inhibition at 3 µM [5] | inhibition at 10 µM [5] | inhibition at 30 µM [5] | inhibition at 5 µM [6] | inhibition at 10 µM [6] | inhibition at 20 µM [6] | inhibition at 40 µM [6] | inhibition at 200 µM [6] | inhibition at 1 µM [9] | inhibition at 3 µM [9] | inhibition at 10 µM [9] | inhibition at 30 µM [9] | inhibition at 100 µM [9]
23%: inhibition at 100 µM [4]
14%: inhibition at 100 µM [2]

Cc1c(O[C@@H](C)c2ccc(CC(C)C)cc2)ccc(C(=O)Nc2ccccc2OCCCC(=O)O)c1C [ONO-3805]
5α-reductase inhibitory activity: 5α-reductase inhibition (5α-reductase [1])
